The source of these data is US9879006B2, “Azaindole acetic acid derivatives and their use as prostaglandin D2 receptor modulators” (IDORSIA PHARMACEUTICALS LTD, priority 2014, dated 2018).

This series deals with primary cultured rat hepatocytes. The experiment in a line: In vitro cytotoxicity in primary cultured rat hepatocytes. The class given is cell-based. Conditions: 24 h treatment, cell morphology and LDH leakage, highest test concentration 300 μM; for LCC (lowest cytotoxic concentration): 300s = only slight cytotoxicity at 300 μM. From the text:
In Vitro Cytotoxicity in Primary Cultured Rat Hepatocytes
Adult male Wistar rats were narcotized with sodium pentobarbital and hepatocytes were isolated according to a standard procedure, i.e. by in situ perfusion of the liver with a collagenase solution. The viability of the purified hepatocytes, checked by the trypan blue dye exclusion method was greater than 85%. The isolated hepatocytes were resuspended in standard Williams Medium E, without phenol red, supplemented (WME supp.) with transferrin (100 μg/ml), triiodothyronine (10 μg/ml), gentamicin (50 μg/ml), hydrocortison hemisuccinate (13.36 μg/ml), glucagon (5 μg/ml), HEPES (10 mM), inosin (10 μg/ml), insulin (10 μg/ml), streptomycin (100 μg/ml) and penicillin (100 U/ml) and 10% fetal bovine serum (FBS). The cells were plated in collagen-coated 24-well plates at an initial density of 2×10^5 cells/well. After 4 h for attachment to the culture-plates, the medium was aspirated and replaced by fresh WME supp. without FBS containing the test compounds and incubated for 24 h at 37° C. in a […] and 5% CO2 atmosphere. For each experiment, i.e., with each batch of hepatocytes, treatments with the test compounds were done in quadriplicate. Quadriplicate controls (treatment with the vehicle only) were also present on each culture plate.
Stock solutions of the test compounds were prepared in DMSO a few hours before treatment start. Appropriate dilutions of these stock solutions were added to the culture media just prior to the treatment in order to give final concentrations of 0, 3, 10, 30, 100 and 300 μM. The final concentration of the vehicle DMSO was 1% (v/v).
The morphology of the hepatocyte monolayers was monitored by light microscopy after 24 hours of exposure to the test compounds. Treatment related effects are described according to the following grading: • 0 No morphological alterations observed upon treatment when compared to the control cultures • 1-3 Treatment resulting in any morphological changes, e.g. intracellular granulation, vacuolization or cell death. Depending on the severity, these changes were regarded as slight (1), moderate (2) or strong (3). • K Treatment resulting in 100% dead cells and/or the complete detachment of the monolayer yielding a clear cell-free dish.
After 24 h treatment of the hepatocyte cultures, aliquots of culture medium were carefully collected and used for the analysis of lactate dehydrogenase (LDH) activity by spectrophotometry using the LDH cytotoxicity detection kit from Clontech (cat No. 630117, Mountain View, Calif., USA). For each experiment, additional cultures were used for the determination of total intracellular LDH activity at treatment start. For this purpose, 4 wells of cell culture per experiment were washed with cold saline before treatment start, sonicated in fresh medium and the homogenate was analyzed for total LDH activity. Enzyme activities in the culture media were assessed and expressed as percentage of the total activity present in the cultured hepatocytes at the beginning of the treatments.
The lowest cytotoxic concentration (LCC) and the no effect concentration (NoEC) are given for each compound, based on cell morphology and LDH leakage after 24 h treatment. LCC is defined as the lowest concentration of the test compound leading to a clear effect on the cultured rat hepatocytes (morphology grading≧2 or ≧2-fold increase in LDH leakage). A LCC value of >300 μM indicates the absence of effect on both endpoints at the highest test concentration of 300 μM. […] NoEC is defined as the highest test concentration of the compound which was without an effect on the cultured rat hepatocytes (morphology and LDH leakage).
(In general: Release of lactate dehydrogenase indicates damage to the cell membrane.)

Where only a bound is given, the exact number is not on record here.

Turning to `CN(c1ncc(Cl)cn1)C1CCc2c(c3nc(C(F)(F)F)ccc3n2CC(=O)O)C1` (stereo not drawn) [drawing 30], the “NoEC (no effect concentration)” value worked out at 100 µM and the “LCC (lowest cytotoxic concentration)” value was found to be 300 s.
On the same counts, the results for `CN(c1ncc(Cl)cn1)[C@H]1CCc2c(c3ncccc3n2CC(=O)O)C1` [drawing 31] are above 300 µM and above 300 µM.
Regarding `O=C(O)Cn1c2c(c3nc(F)ccc31)C[C@@H](Nc1ncc(Cl)cn1)CC2` [drawing 35], the “NoEC (no effect concentration)” value is above 300 µM and the “LCC (lowest cytotoxic concentration)” value was above 300 µM.
In the case of `Cc1ccc2c(n1)c1c(n2CC(=O)O)CCC(N(C)c2ncc(Cl)cn2)C1` (stereo not drawn) [drawing 27], the “NoEC (no effect concentration)” value is above 300 µM and the “LCC (lowest cytotoxic concentration)” value is above 300 µM.
`CN(c1ncc(Cl)cn1)[C@H]1CCc2c(c3ncccc3n2CC(=O)O)C1` [drawing 32]: the “NoEC (no effect concentration)” value was 30 µM and the “LCC (lowest cytotoxic concentration)” value was 300 µM.
The like results for `CN(c1ncc(Cl)cn1)[C@H]1CCc2c(c3cc(F)ccc3n2CC(=O)O)C1` were, in that order, 30 µM and 300 µM.
The like results for `CN(c1ncc(Cl)cn1)[C@H]1CCc2c(c3nc(F)ccc3n2CC(=O)O)C1` [drawing 33] were, in that order, above 300 µM and above 300 µM.
On the same counts, the results for `CN(c1ncc(Cl)cn1)C1CCc2c(c3nc(F)ccc3n2CC(=O)O)C1` (stereo not drawn) [drawing 28] are above 300 µM and above 300 µM.
On to `COc1ccc2c(n1)c1c(n2CC(=O)O)CCC(N(C)c2ncc(Cl)cn2)C1` (stereo not drawn) [drawing 29], for which the “NoEC (no effect concentration)” value amounted to 100 µM and the “LCC (lowest cytotoxic concentration)” value is 300 s.
